We go through one sequence from patent US20100098670A1, “Autologous dental pulp stem cell-based bone graft substitute” (Cerapedics Inc., priority 2007, published 2010).

Entries after “also recorded” stand apart in the source; their conditions may differ. Ends that are not written are not given here.

Experiment [1] relates to human dental pulp explants. In words: Cell outgrowth from human dental pulp explants cultured with scaffolds (live/dead markers, confocal microscopy, SEM). The following applies: fluorescence, confocal or SEM images. The experiment is classed as cell-based. The method, then:
(§1) The HDPSCs were isolated from human dental pulp tissues and cultured on ABM and ABM-P-15 scaffolds in media. The cultured cells on the scaffolds were analysed by live/dead fluorescent markers, histological staining (ALP, Alizalin Red, Toluidine blue), confocal microscopy and scanning electron microscopy. The effect of P-15 on HDPSCs BMP-2 production was confirmed by a well developed promyoblast induction assay via co-culturing of C2C12 promyoblasts and HDPSCs on ABM or ABM-P-15. […] Cell outgrowth from the explants was assessed by live/dead fluorescent markers, histological staining (ALP), confocal microscope and scanning electron microscopy.
Teeth were obtained with patients' informed consent following project approval by the NHS local ethical committee (COREC: 06/Q1206/165). Human dental pulp was extracted from sound intact teeth, which had been surgically removed at the Leeds Dental Institute for clinical reasons. Each tooth was washed within a Class II hood and cracked in a bench vice. The dental pulp tissues were harvested and washed with 1×PBS and minced into small pieces (1×2×2 mm^3) which were kept in the PBS and ready for use.
PepGen P-15 (ABM-P15) and/or Osteo-Graf/N-300 (ABM alone) were provided by Cerapedics Inc. (Lakewood, Colo.) in a particulate form. 50 mg of ABM-P-15 and ABM alone were transferred into the 48 well plates and sterilized under UV radiation for 30 minutes. […]

Another experiment concerns HDPSCs. As to the kind of experiment: ALP and toluidine blue staining of HDPSCs cultured on scaffolds. It is filed as cell-based, human. The conditions noted are these: isolated HDPSCs on scaffolds. The method, then:
as §1

For the sequence “GTPGPQGIAGQRGVV [P-15, collagen mimetic, 15 amino acid residues of the α1(I) chain of collagen]”, in experiment [1] (50 mg scaffold, basal media), the “outgrowth of HDPSCs from dental pulp explants” value is reported as “enhanced the outgrowth”. The “cell bridge formation between adjacent scaffold particles” value in experiment [1] (explant culture) was “promoted cell bridge formation”. Further, the “HDPSCs differentiation along the osteogenic lineage (ALP expression)” value in the experiment with HDPSCs is recorded as “promoted the HDPSCs differentiation along the osteogenic lineage; also recorded: promoted HDPSCs differentiation along the osteogenic lineage”.
